How the values were obtained:
[1] = system: T-bet and GATA3 expression; assay: Quantitative RT-PCR of T-bet and GATA3 in CD8+ T cells; format: cell-based, mouse; settings: CD8+ T cells in IL-2 or IL-2+IL-4, untreated vs 500 μM AMG
Experimental: CD8^+ effector memory T cells were generated in vitro as previously described (Miyahara, N. et al. J. Immunol. 172, 2549-2558 (2004); Miyahara, N. et al. J. Immunol. 174, 4979-4984 (2005)). In brief, mononuclear cells (MNCs) were processed from the spleens of OT-1 mice followed by stimulation of 1 μg/ml SIINFEKL peptide (SEQ ID NO:1) was used to stimulate cells for 1.5 hours. Two days after culture, living cells were re-isolated using histopaque and cultured in complete RPMI 1640 medium that contained recombinant mouse IL-2 (20 ng/ml) (R&D, Minneapolis, Minn.) or IL-2+IL-4 (20 ng/ml) (Peprotech, Rocky Hill, N.J.). For some experiments, AMG was added into the medium together with IL-2 or IL-2+IL-4. Medium with cytokines was changed every day for a further 4 days. The cells were then re-stimulated with 1 μg/ml SIINFEKL (SEQ ID NO:1) in medium containing 2 μM monensin (Calbiochem, La Jolla, Calif.) for 4 hours. Total RNA was extracted from 5×10^6 differentiated CD8^+ T cells using the RNeasy Mini kit (Qiagen, Valencia, Calif.). 1 μg of total RNA was converted into cDNA using iScript cDNA Synthesis kit (Bio-Rad, Hercules, Calif.). […] Fold-changes were determined using the 2^−ΔΔCt method, with normalization to expression of mouse GAPDH.

CD4 T cells = assay: Th1, Th2, Th17 differentiation of naive CD4 T cells in vitro; format: cell-based, mouse
Experimental: Levels of IL-4, IL-13, IL-17A, and IFN-γ in cell culture supernatants were measured by ELISA (eBioscience, San Diego, Calif.) as described by the manufacturer. Pregnenolone levels in serum and cell culture supernatants were measured by ELISA (ALPCO Diagnostics, Salem, N.H.), as described by the manufacturer. Differentiation of Th1, Th2, or Th17 cells was performed as previously described with minor changes (Ashino, S., et al. Intl. Immunol. 22:503-513 (2010)). CD4^+CD45RB^+ T cells were isolated from naive TCR-transgenic mice (OT II mice) spleen using a cell sorter (MoFlo XDP, Beckman Coulter). In the presence of mitomycin-C-treated spleen cells, 5 μg/ml OVA323-339 peptide, and the inhibitor AMG ([…]), isolated naive CD4 T cells were cultured with rmIL-2 (10 ng/ml, R/D Systems), rmIL-12 (10 ng/ml, Peprotech), rmIFN-γ (5 ng/ml, Peprotech), and anti-IL-4 mAbs (10 μg/ml, eBioscience) to induce Th1 cell differentiation; with rmIL-2 (10 ng/ml, R/D Systems), rmIL-4 (5 ng/ml, Peprotech), and anti-IFN-γ mAb (10 μg/ml, eBioscience) for differentiation of Th2 cells; and […], Peprotech), anti-IL-4 mAb (10 μg/ml, eBioscience), and anti-IFN-γ mAb (10 μg/ml, eBioscience) for differentiation of Th17 cells. After 6 days of culture, the cells were washed with fresh medium and restimulated with anti-CD3/anti-CD28 for 24 hrs for assay of cytokine production. The cells were collected for quantitative RT-PCR and Western blot. In some experiments (for transduction experiment), the cells were cultured under Th1, Th2, and Th17 polarizing conditions for 5 days as described in Methods. Cultured cells were lysed as previously described (Ohnishi, H., et al. J. Allergy Clin. Immunol. 121:864-871 (2008)). Lysates were resolved by means of SDS-PAGE and transferred to nitrocellulose membranes. Proteins were detected using antibodies specific for Cyp11a1 (LifeSpan Biosciences. Seattle, Wash.) followed by chemiluminescence detection (GE Healthcare, Little Chalfont, UK). RNA was extracted from jejunal tissue homogenates or from CD4 T cells cultured in vitro using Trizol (Invitrogen). cDNA was generated using the iScript cDNA synthesis kit (Bio-Rad Laboratories, Hercules, Calif.). Quantitative real-time PCR was performed on the ABI Prism 7300 sequence detection system (Applied Biosystems, Foster City, Calif.). All primers and probes used were purchased as Tagman Gene Expression Assays from Applied Biosystems. Fold change was calculated using the Delta Delta cycle threshold (ΔΔCT) method.

[2] = polarized Th1, Th2 or Th17 cells, AMG 400 μM

CCC1(c2ccc(N)cc2)CCC(=O)NC1=O (stereo not drawn) [AMG, aminoglutethimide]
GATA3 expression [1]: no significant differences
T-bet expression [1]: no significant differences
IFNG mRNA expression (CD4 T cells; Th1 cells): no significant effects
Pregnenolone levels in culture supernates (CD4 T cells; Th2 cells, AMG 400 μM): significantly decreased
Pregnenolone levels in culture supernates (CD4 T cells; Th17 cells, AMG 400 μM): the decreases did not reach statistical significance
Cyp11a1 mRNA expression levels (CD4 T cells; [2]): did not suppress
Cyp11a1 protein expression levels (CD4 T cells; [2]): did not suppress
IFN-γ levels in culture supernatants (CD4 T cells; polarized Th1 cell cultures): not affected
T-bet mRNA expression (CD4 T cells; polarized Th1 cells, 400 μM): did not have any effect
IL-13 levels in culture supernatants (CD4 T cells; polarized Th2 cell cultures): decreased
IL13 mRNA (CD4 T cells; polarized Th2 cells): decreased
GATA3 mRNA expression (CD4 T cells; polarized Th2 cells, 400 μM): did not have any effect
IL-17A levels in culture supernatants (CD4 T cells; polarized Th17 cell cultures): decreased
IL17A mRNA (CD4 T cells; polarized Th17 cells): decreased
RORγt mRNA expression (CD4 T cells; polarized Th17 cells, 400 μM): did not have any effect

From patent US9534221B2, “Targeting the steroidogenic pathway for treating and/or preventing allergic diseases” (National Jewish Health, priority 2013, dated 2017)
